Reference: patent US6995143B2, “Macrolides with antibacterial activity” (Basilea Pharmaceutica AG, priority 2002, dated 2006)
In brackets after ≈: the same amount, converted by molar mass.

Tests used:
Format in all cases: cell-based
[1] = system: Haemophilus influenzae B1501; experiment: MIC, standard agar dilution method using HTM medium
How it was run: (§1)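 The reported MIC comes from dilution testing done to NCCLS guidance M7-A5. Organism: Haemophilus influenzae.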

[2] = system: Haemophilus influenzae QK12/87; experiment: as above
How it was run: as §1

[3] = system: Haemophilus influenzae QK50; experiment: as above
How it was run: as §1

[4] = system: Haemophilus influenzae 12214; experiment: as above
How it was run: as §1

[5] = system: Streptococcus pneumoniae 12288; experiment: MIC, standard microdilution technique
How it was run: (§2)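 Susceptibility testing used the NCCLS fifth-edition approved standard for aerobic organisms (M7-A5).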

[6] = system: Streptococcus pneumoniae l/l; experiment: MIC, standard microdilution technique
How it was run: as §2

[7] = system: Streptococcus pneumoniae ¼; experiment: MIC, standard microdilution technique
How it was run: as §2

[8] = system: Staphylococcus aureus ATCC 29213; experiment: MIC, standard microdilution technique
How it was run: as §2

[9] = system: Staphylococcus aureus 745; experiment: MIC, standard microdilution technique
How it was run: as §2

[10] = system: Streptococcus pneumoniae SL199T; experiment: MIC, standard microdilution technique
How it was run: as §2

[11] = system: Staphylococcus aureus 1086; experiment: MIC, standard microdilution technique
How it was run: as §2

[12] = system: Escherichia coli ATCC 25922; experiment: MIC, standard microdilution technique
How it was run: as §2

SMILES	minimum inhibitory concentration (MIC), Strain M [1]	minimum inhibitory concentration (MIC), Strain I [2]	minimum inhibitory concentration (MIC), Strain L [3]	minimum inhibitory concentration (MIC), Strain K [4]	minimum inhibitory concentration (MIC), Strain H [5]	minimum inhibitory concentration (MIC), Strain E [6]	minimum inhibitory concentration (MIC), Strain F [7]	minimum inhibitory concentration (MIC), Strain A [8]	minimum inhibitory concentration (MIC), Strain C [9]	minimum inhibitory concentration (MIC), Strain G [10]	minimum inhibitory concentration (MIC), Strain B [11]	minimum inhibitory concentration (MIC), Strain D [12]
CC[C@H]1OC(=O)[C@H](C)C(=O)[C@H](C)[C@@H](O[C@@H]2O[C@H](C)C[C@H](N(C)C)[C@H]2O)[C@](C)(OC)C[C@@H](C)C(=O)[C@H](C)[C@H]2[C@@H](SCC(=O)c3ccccn3)C(=O)O[C@@]21C [Example 7]	32 µg/mL (≈ 41.9 µM)	32 µg/mL (≈ 41.9 µM)	32 µg/mL (≈ 41.9 µM)	32 µg/mL (≈ 41.9 µM)	>32 µg/mL	<=0.06 μg/ml	32 µg/mL (≈ 41.9 µM)	1 µg/mL (≈ 1.31 µM)	>32 µg/mL	32 µg/mL (≈ 41.9 µM)	0.5 µg/mL (≈ 0.655 µM)	>32 µg/mL
CC[C@H]1OC(=O)[C@H](C)C(=O)[C@H](C)[C@@H](O[C@@H]2O[C@H](C)C[C@H](N(C)C)[C@H]2O)[C@](C)(OC)C[C@@H](C)C(=O)[C@H](C)[C@H]2[C@@H](SCCN(C)CCn3cnc4c(N)ncnc43)C(=O)O[C@@]21C [Example 9]	4 µg/mL (≈ 4.64 µM)	8 µg/mL (≈ 9.28 µM)	8 µg/mL (≈ 9.28 µM)	16 µg/mL (≈ 18.6 µM)	32 µg/mL (≈ 37.1 µM)	<=0.06 μg/ml	0.5 µg/mL (≈ 0.58 µM)	1 µg/mL (≈ 1.16 µM)	>32 µg/mL	8 µg/mL (≈ 9.28 µM)	1 µg/mL (≈ 1.16 µM)	>32 µg/mL
CC[C@H]1OC(=O)[C@@](C)(F)C(=O)[C@H](C)[C@@H](O[C@@H]2O[C@H](C)C[C@H](N(C)C)[C@H]2O)[C@](C)(OC)C[C@@H](C)C(=O)[C@H](C)[C@H]2[C@@H](S(=O)(=O)CCCn3cc(-c4ccccc4)cn3)C(=O)O[C@@]21C [Example 11]	4 µg/mL (≈ 4.56 µM)	8 µg/mL (≈ 9.11 µM)	4 µg/mL (≈ 4.56 µM)	8 µg/mL (≈ 9.11 µM)	16 µg/mL (≈ 18.2 µM)	<=0.06 μg/ml	0.25 µg/mL (≈ 0.285 µM)	0.125 µg/mL (≈ 0.142 µM)	>32 µg/mL	4 µg/mL (≈ 4.56 µM)	<=0.06 μg/ml	>32 µg/mL
CC[C@H]1OC(=O)[C@H](C)C(=O)[C@H](C)[C@@H](O[C@@H]2O[C@H](C)C[C@H](N(C)C)[C@H]2O)[C@](C)(OC)C[C@@H](C)C(=O)[C@H](C)[C@H]2[C@@H](SCC(=O)c3ccc(N(CC)CC)cc3)C(=O)O[C@@]21C [Example 17]	>32 µg/mL	>32 µg/mL	>32 µg/mL	>32 µg/mL	>32 µg/mL	1 µg/mL (≈ 1.2 µM)	>32 µg/mL	16 µg/mL (≈ 19.2 µM)	>32 µg/mL	>32 µg/mL	8 µg/mL (≈ 9.6 µM)	>32 µg/mL
CC[C@H]1OC(=O)[C@H](C)C(=O)[C@H](C)[C@@H](O[C@@H]2O[C@H](C)C[C@H](N(C)C)[C@H]2O)[C@](C)(OC)C[C@@H](C)C(=O)[C@H](C)[C@H]2[C@@H](SCC(=O)N3CCc4ccccc43)C(=O)O[C@@]21C [Example 18]	8 µg/mL (≈ 9.96 µM)	8 µg/mL (≈ 9.96 µM)	8 µg/mL (≈ 9.96 µM)	8 µg/mL (≈ 9.96 µM)	>32 µg/mL	<=0.06 μg/ml	2 µg/mL (≈ 2.49 µM)	0.25 µg/mL (≈ 0.311 µM)	>32 µg/mL	16 µg/mL (≈ 19.9 µM)	0.25 µg/mL (≈ 0.311 µM)	>32 µg/mL
CC[C@H]1OC(=O)[C@H](C)C(=O)[C@H](C)[C@@H](O[C@@H]2O[C@H](C)C[C@H](N(C)C)[C@H]2O)[C@](C)(OC)C[C@@H](C)C(=O)[C@H](C)[C@H]2[C@@H](SCCS(=O)(=O)NCc3ccccc3)C(=O)O[C@@]21C [Example 24]	32 µg/mL (≈ 38 µM)	32 µg/mL (≈ 38 µM)	>32 µg/mL	>32 µg/mL	>32 µg/mL	<=0.06 μg/ml	>32 µg/mL	2 µg/mL (≈ 2.38 µM)	>32 µg/mL	32 µg/mL (≈ 38 µM)	1 µg/mL (≈ 1.19 µM)	>32 µg/mL
CC[C@H]1OC(=O)[C@H](C)C(=O)[C@H](C)[C@@H](O[C@@H]2O[C@H](C)C[C@H](N(C)C)[C@H]2O)[C@](C)(OC)C[C@@H](C)C(=O)[C@H](C)[C@H]2[C@@H](SCCNS(=O)(=O)c3cccc4c(N(C)C)cccc34)C(=O)O[C@@]21C [Example 28]	>32 µg/mL	32 µg/mL (≈ 34.8 µM)	32 µg/mL (≈ 34.8 µM)	>32 µg/mL	>32 µg/mL	<=0.06 μg/ml	32 µg/mL (≈ 34.8 µM)	1 µg/mL (≈ 1.09 µM)	>32 µg/mL	16 µg/mL (≈ 17.4 µM)	1 µg/mL (≈ 1.09 µM)	>32 µg/mL
CC[C@H]1OC(=O)[C@H](C)C(=O)[C@H](C)[C@@H](O[C@@H]2O[C@H](C)C[C@H](N(C)C)[C@H]2O)[C@](C)(OC)C[C@@H](C)C(=O)[C@H](C)[C@H]2[C@@H](SCCNS(=O)(=O)c3cccc4cccnc34)C(=O)O[C@@]21C [Example 29]	8 µg/mL (≈ 9.11 µM)	8 µg/mL (≈ 9.11 µM)	8 µg/mL (≈ 9.11 µM)	8 µg/mL (≈ 9.11 µM)	>32 µg/mL	<=0.06 μg/ml	>32 µg/mL	<=0.06 μg/ml	>32 µg/mL	2 µg/mL (≈ 2.28 µM)	<=0.06 μg/ml	>32 µg/mL
CC[C@H]1OC(=O)[C@H](C)C(=O)[C@H](C)[C@@H](O[C@@H]2O[C@H](C)C[C@H](N(C)C)[C@H]2O)[C@](C)(OC)C[C@@H](C)C(=O)[C@H](C)[C@H]2[C@@H](SCC(=O)NCc3ccc4c(c3)OCO4)C(=O)O[C@@]21C [Example 30]	8 µg/mL (≈ 9.58 µM)	16 µg/mL (≈ 19.2 µM)	16 µg/mL (≈ 19.2 µM)	16 µg/mL (≈ 19.2 µM)	>32 µg/mL	<=0.06 μg/ml	32 µg/mL (≈ 38.3 µM)	0.125 µg/mL (≈ 0.15 µM)	>32 µg/mL	16 µg/mL (≈ 19.2 µM)	<=0.06 μg/ml	>32 µg/mL
CC[C@H]1OC(=O)[C@H](C)C(=O)[C@H](C)[C@@H](O[C@@H]2O[C@H](C)C[C@H](N(C)C)[C@H]2O)[C@](C)(OC)C[C@@H](C)C(=O)[C@H](C)[C@H]2[C@@H](SCC(=O)NCc3ccco3)C(=O)O[C@@]21C [Example 31]	8 µg/mL (≈ 10.2 µM)	8 µg/mL (≈ 10.2 µM)	8 µg/mL (≈ 10.2 µM)	8 µg/mL (≈ 10.2 µM)	>32 µg/mL	<=0.06 μg/ml	>32 µg/mL	0.5 µg/mL (≈ 0.64 µM)	>32 µg/mL	32 µg/mL (≈ 41 µM)	0.25 µg/mL (≈ 0.32 µM)	>32 µg/mL
